Measured values as given in PMC9027131, “Dual PI3K/Akt Inhibitors Bearing Coumarin-Thiazolidine Pharmacophores as Potential Apoptosis Inducers in MCF-7 Cells” (Pharmaceuticals, 2022).

Assays:
MCF-7 cells = experiment: MTT cytotoxicity assay in MCF-7 cells; type: cell-based, human; conditions: Homo sapiens, MCF7, 48 h, means ± sd, n = 3
Procedure: The in vitro anticancer activity of the designed coumarin-thiosemicarbazones and coumarin-thiazolidine-4-one hybrids against MCF-7 cells was tested using the MTT assay, and 5-fluorouracil (5-FU) was used as the reference drug. The tested compounds were used in different concentrations, and cell survival was determined after incubation for 48 h as reported. The cytotoxic activity is represented in Table 1 as IC50 (µM) values.
MCF-7 breast cancer cell line (ATCC® HTB-22™) plus non-tumorigenic epithelial cell line (MCF 10, ATCC® CRL-10317™) were supplied from VACSERA (Cairo, Egypt) and cultured in Dulbecco’s Modified Eagle Medium (Invitrogen-Life Technologies, Carlsbad, CA, USA) with 1% antibiotic solution (streptomycin–penicillin) plus 10% fetal bovine serum (Hyclone) in a 5% (v/v) humidified CO2 incubator at 37 °C.
Firstly, cells were kept in a humidified atmosphere (37 °C, 24 h), and then incubated with serial concentrations of the tested compounds. After 48 h, the medium was aspirated, and then cells were incubated with 5% MTT solution (M-5655; Sigma Aldrich, St. Louis, MO USA) (200 µL/well, 2 h), allowing the dye to metabolize into the colored insoluble formazan complex that was then dissolved in the appropriate solubilization solution (M-8910) (200 µL/well), for 30 min with gentle mixing at room temperature. The UV absorbance was measured using a microplate reader (570 nm), and cell viability was determined with respect to untreated control cells. […] The values were means ± sd; n = 3.

PI3K-α = biological target: T1, PI3K-α (Homo sapiens, UniProt P42336); experiment: PI3Kα (p110α/p85) enzyme inhibition assay kit; type: biochemical; conditions: means ± sd, n = 3; read-out: IC50 (µM) PI3K-α Isoform
T1 construct: purchased BPS Bioscience, Inc 79781
T1 sequence (P42336 whole entry, canonical isoform): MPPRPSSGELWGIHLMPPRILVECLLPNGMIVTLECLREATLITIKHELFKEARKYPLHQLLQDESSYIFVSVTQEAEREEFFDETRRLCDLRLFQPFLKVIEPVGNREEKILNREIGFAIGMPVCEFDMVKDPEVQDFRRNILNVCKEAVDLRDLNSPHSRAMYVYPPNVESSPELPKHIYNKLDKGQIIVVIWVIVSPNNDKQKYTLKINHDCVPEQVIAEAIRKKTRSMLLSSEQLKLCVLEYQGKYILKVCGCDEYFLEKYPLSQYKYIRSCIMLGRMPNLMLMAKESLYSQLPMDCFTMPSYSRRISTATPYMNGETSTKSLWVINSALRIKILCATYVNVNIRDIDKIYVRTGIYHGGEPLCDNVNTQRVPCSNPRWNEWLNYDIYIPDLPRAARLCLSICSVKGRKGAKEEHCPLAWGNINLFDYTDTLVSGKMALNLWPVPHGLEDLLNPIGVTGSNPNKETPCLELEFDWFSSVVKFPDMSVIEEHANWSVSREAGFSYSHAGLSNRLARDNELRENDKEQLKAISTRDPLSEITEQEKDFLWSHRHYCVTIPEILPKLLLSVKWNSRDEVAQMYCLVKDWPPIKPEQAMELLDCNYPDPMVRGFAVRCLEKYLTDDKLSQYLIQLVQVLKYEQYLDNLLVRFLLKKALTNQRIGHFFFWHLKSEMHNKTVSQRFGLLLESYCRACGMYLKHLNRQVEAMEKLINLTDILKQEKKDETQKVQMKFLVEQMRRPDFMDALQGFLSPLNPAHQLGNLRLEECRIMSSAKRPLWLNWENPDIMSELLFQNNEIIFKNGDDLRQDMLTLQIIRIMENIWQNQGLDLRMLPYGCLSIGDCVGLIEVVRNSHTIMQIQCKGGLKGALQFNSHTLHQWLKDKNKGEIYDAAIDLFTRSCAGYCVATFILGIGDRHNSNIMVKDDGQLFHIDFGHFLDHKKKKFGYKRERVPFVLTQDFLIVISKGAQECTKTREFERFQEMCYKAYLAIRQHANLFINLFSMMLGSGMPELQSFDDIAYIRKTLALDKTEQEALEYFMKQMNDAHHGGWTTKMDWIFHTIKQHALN
T1 sequence (P27986 whole entry partner, canonical isoform): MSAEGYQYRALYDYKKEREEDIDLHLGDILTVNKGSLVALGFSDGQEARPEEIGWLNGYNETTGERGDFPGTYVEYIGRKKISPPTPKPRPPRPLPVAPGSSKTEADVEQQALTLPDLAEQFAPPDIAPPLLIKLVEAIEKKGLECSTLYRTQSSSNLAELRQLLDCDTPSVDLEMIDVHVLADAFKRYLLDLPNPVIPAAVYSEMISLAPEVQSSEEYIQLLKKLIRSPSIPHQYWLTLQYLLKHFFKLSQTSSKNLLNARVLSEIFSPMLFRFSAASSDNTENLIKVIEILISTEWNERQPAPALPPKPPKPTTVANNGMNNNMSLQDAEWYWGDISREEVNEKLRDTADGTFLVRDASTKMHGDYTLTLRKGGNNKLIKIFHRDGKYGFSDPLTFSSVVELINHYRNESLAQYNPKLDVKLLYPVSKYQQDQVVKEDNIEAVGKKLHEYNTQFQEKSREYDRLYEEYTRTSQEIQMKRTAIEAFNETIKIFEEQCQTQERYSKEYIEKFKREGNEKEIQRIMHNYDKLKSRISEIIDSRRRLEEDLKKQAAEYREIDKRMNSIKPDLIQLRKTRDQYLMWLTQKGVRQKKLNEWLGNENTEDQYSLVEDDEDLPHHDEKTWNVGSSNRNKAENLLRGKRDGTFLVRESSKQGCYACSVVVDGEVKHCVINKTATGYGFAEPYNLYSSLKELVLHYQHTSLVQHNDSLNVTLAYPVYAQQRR
Description: (§1) Accumulating evidence highlighted that PI3K signaling pathway upregulation is highly implicated in breast cancer development and disease progression as well as resistance to hormones and cytotoxic therapy. Therefore, it is essential to elucidate the effect of the novel compound, VIIb, on the PI3K/Akt signaling pathway by using in vitro PI3K class 1A enzyme inhibition assay conducted on PI3K-α and PI3K-γ isoforms as well as an Akt-1 enzyme inhibition assay. […] Furthermore, targeting the PI3K-γ isoform in breast cancer could contribute to enhancing the anti-tumor immunity.
(§2) The in vitro inhibition of PI3K and Akt kinase activities by VIIb was assessed using a PI3Kα (p110α/p85) assay kit (Catalog #79781; BPS Bioscience, Inc, San Diego, CA, USA), PI3Kγ (p110γ/PIK3R5) assay kit (Catalog #79803; BPS Bioscience, Inc, San Diego, CA, USA), and Akt Kinase Activity assay kit (ab139436; Abcam, Cambridge, UK) following the manufacturer’s instructions as described previously. The results were expressed as IC50 values using dose–response curves and linear regression equations.

Akt-1 = biological target: T2, Akt-1 (Homo sapiens, UniProt P31749); experiment: Akt Kinase Activity assay kit; type: biochemical; conditions: means ± sd, n = 3; read-out: IC50 (µM) Akt-1 Isoform
T2 construct: purchased Abcam ab139436
T2 sequence (P31749 whole entry, species assumed, canonical isoform): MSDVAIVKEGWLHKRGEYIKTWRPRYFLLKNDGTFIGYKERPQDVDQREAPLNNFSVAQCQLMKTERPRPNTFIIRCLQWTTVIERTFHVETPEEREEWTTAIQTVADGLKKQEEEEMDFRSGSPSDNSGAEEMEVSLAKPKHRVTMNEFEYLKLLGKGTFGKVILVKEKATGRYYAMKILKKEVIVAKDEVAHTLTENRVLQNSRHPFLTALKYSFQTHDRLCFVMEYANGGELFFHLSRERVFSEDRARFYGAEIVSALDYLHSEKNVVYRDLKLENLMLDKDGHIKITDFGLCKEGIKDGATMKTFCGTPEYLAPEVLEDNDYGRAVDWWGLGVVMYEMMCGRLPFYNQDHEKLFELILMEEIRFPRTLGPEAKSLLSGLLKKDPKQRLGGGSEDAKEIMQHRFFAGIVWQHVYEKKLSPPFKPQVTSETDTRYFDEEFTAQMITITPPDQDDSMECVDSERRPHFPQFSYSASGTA
Description: as §1
as §2, with “equations. LY294002 compound was taken as the reference compound. The values were means ± sd; n = 3.” for “equations.”

caspase-9 = experiment: Cleaved caspase-9 level by ELISA in MCF-7 cells; type: cell-based, human; conditions: MCF-7, 48 h; control 2.712 ± 0.09; means ± sd, n = 3
Procedure: Apoptosis is a programmed cell death modality that includes an array of steps such as activation of caspases alongside endonucleases leading to DNA cleavage, eventually causing the formation of apoptotic bodies. Caspases are classified into effector caspases, such as caspase-3, -6, and -7, and initiator caspases, including either caspase-2, -8, and -10 (extrinsic pathway) or caspase-9 (intrinsic pathway).
The level of cleaved caspase-9 was assessed in both untreated/control MCF-7 cells and following VIIb treatment using DRG® Caspase-9 (human) ELISA (EIA-4860), following the manufacturer’s instructions (DRG International Inc., Springfield, NJ, USA). The data were means ± sd; n = 3.

Cyclin D1, p-PI3K, p-Akt = experiment: Western blot in MCF-7 cells; type: cell-based, human; conditions: MCF-7, IC50, 48 h, vs control untreated cells
Description: Cyclin D1 activity is essential for the G1 to S phase transition. Moreover, the PI3K/Akt axis is crucial for cell growth and apoptosis. The effects of VIIb on Cyclin D1 and the PI3K/Akt pathway in MCF-7 cells was investigated adopting reported procedures. […] Herein, Western blot results confirmed our previous findings, highlighting the ability of the novel compound, VIIb, to inhibit the PI3K/Akt signaling pathway. […] Cyclin D1 is a proto-oncogene and a major regulator of cell cycle progression. In addition, Cyclin D1 overexpression has been linked to both breast tumorigenesis and tumor progression as well as to the development of endocrine resistance in breast cancer cells.
Whole-cell protein lysates obtained from both control as well as VIIb-treated (IC50 (µM), for 48 h) MCF-7 cells were resolved by SDS-PAGE, and then immunoblotting was conducted with antibodies against cyclin D, p-Akt, and p-PI3K compared to the housekeeping protein β-Actin.
Western blot analysis was conducted using the following primary antibodies: anti-p-Akt (1:5000; ab81283), anti-Cyclin D1 (1:1000; ab226977), anti-p-PI3K (1:1000; ab278545), and anti-beta-actin (1:1000; ab8227). Firstly, VIIb-treated and untreated cells were rinsed with PBS, and then cold lysis buffer was added to induce cell lysis. After centrifugation, the supernatants were collected, and harvested proteins were quantified by Bradford assay and then resolved on SDS-PAGE followed by electroblotting onto polyvinylidene fluoride membranes. Later, membrane blocking was conducted using 5% skimmed milk in 0.1% Tween-20 in PBS (PBST). Then membranes were incubated with the aforementioned primary antibodies at 4 °C. Following 12-h incubation, the membranes were soaked in PBST thrice followed by 1-h incubation with appropriate secondary antibodies. Antibodies were supplied from Abcam (Cambridge, UK). The signals were visualized with a chemiluminescence ECL kit (Perkin Elmer, Waltham, MA, USA) following the manufacturer’s instructions, and images were obtained using a Biorad Imager.

C/C(=N/N=C1/SCC(=O)N1C(=O)c1ccccc1)c1c(O)ccc2c(C)cc(=O)oc12 [VIIb]
IC50 (MCF-7 cells): 1.03 ± 0.05 µM | IC50 (PI3K-α): 3.7 ± 0.19 µM | IC50 (Akt-1): 2.93 ± 0.15 µM | Caspase-9 Level (caspase-9): 21.61 ± 0.14 ng/mL | level of Cyclin D1 (Cyclin D1, p-PI3K, p-Akt): effectively suppressed | level of p-Akt (Cyclin D1, p-PI3K, p-Akt): effectively suppressed | level of p-PI3K (Cyclin D1, p-PI3K, p-Akt): effectively suppressed
